Assay results taken from patent US4156016A, “Indole compounds and process for their preparation” (Hoffmann-La Roche Inc., priority 1977, dated 1979).
Like-named read-outs stand apart in the source and are kept apart here.

What was measured:
[1] = system: serum PGF2α; assay: Inhibition of prostaglandin formation: serum PGF2α by radioimmunoassay (rats); type: in vivo, male rats; conditions: for ED50: Rattus norvegicus, 1 h, rats
[2] = system: ADP induced aggregation; assay: Inhibition of ADP-induced platelet aggregation (second wave) in human platelet-rich plasma; type: cell-based; conditions: for inhibition at 2.5 µM / inhibition at 5 µM / inhibition at 10 µM / inhibition at 20 µM / inhibition at 50 µM: Homo sapiens, Platelet, read-out: Percent Inhibition
Procedure: (§1) Venous blood was collected from human volunteers in siliconized 20 ml. […] Platelet rich plasma (PRP) was separated from the red blood cells by centrifugation at 180×g for 15 minutes at room temperature. Platelet poor plasma (PPP) was prepared by centrifuging PRP at 1000×g for 2 minutes.
(§2) Techniques established by Born et al., J. Physiol. […] PRP (1 ml.) was added to a siliconized cuvette containing a siliconized stirring bar and placed in a densitometer maintained at 37° C. and stirred at 1000 RPM. Various concentrations of test compounds were added in 50 μl of saline and incubated with PRP for 5 minutes. Aggregation was initiated by the addition of sufficient concentrations of ADP (Sigma Chemical Co.), epinephrine HCl (Parke, Davis & Co., Detroit, Michigan), or human mammary gland collagen (obtained from Roosevelt Hospital, N.Y.) to give about 60% of maximum aggregation response. The light transmission through PPP was used to determine maximum response. The percent inhibition of aggregation caused by the drug was calculated from the strip chart recordings at the point of maximum collagen response.

[3] = system: Epinephrine induced aggregation; assay: Inhibition of epinephrine-induced platelet aggregation (second wave) in human platelet-rich plasma; type: cell-based; conditions: for inhibition at 10 µM / inhibition at 20 µM / inhibition at 25 µM / inhibition at 50 µM / inhibition at 100 µM: Homo sapiens, Platelet, read-out: Percent Inhibition
Procedure: as §1, §2

[4] = system: human blood-platelet aggregation; assay: Inhibition of human blood-platelet aggregation (general statement)
[5] = system: Collagen-Induced Platelet Aggregation; assay: Inhibition of collagen-induced platelet aggregation in human platelet-rich plasma; type: cell-based; conditions: for inhibition at 2.5 µM / inhibition at 5 µM / inhibition at 15 µM / inhibition at 25 µM / inhibition at 50 µM: read-out: Percent Inhibition
Procedure: as §1, §2

[6] = Toxicity (general statement)
[7] = incubation in human citrated platelet-rich plasma

In the case of `N#Cc1[nH]c2ccc(C(O)(C(F)(F)F)C(F)(F)F)cc2c1-c1ccccc1` [nitrile, 3-Phenyl-5-[2,2,2-trifluoro-1-hydroxy-1-(trifluoromethyl)ethyl]indole-2-carbonitrile], the “serum PGF2α” value ([1]; 1 mg/kg i.p., ± SE) is reported as 27 ± 2.9 ng/mL, the “serum PGF2α” value ([1]; 1 mg/kg p.o., ± SE) is reported as 28 ± 4.6 ng/mL and the “serum PGF2α” value ([1]; 3 mg/kg i.p., ± SE, p <0.05) is reported as 18 ± 1.5 ng/mL. The “serum PGF2α” value ([1]; 3 mg/kg p.o., ± SE) was 19 ± 4.2 ng/mL, the “serum PGF2α” value ([1]; 10 mg/kg i.p., ± SE, p <0.01) was 18 ± 2.9 ng/mL and the “serum PGF2α” value ([1]; 10 mg/kg p.o., ± SE, p <0.001) was 12 ± 2.4 ng/mL. The “serum PGF2α” value ([1]; 30 mg/kg i.p., ± SE, p <0.001) was 2 ± 1.6 ng/mL, the “serum PGF2α” value ([1]; 30 mg/kg p.o.) was 0 ng/mL and the “serum PGF2α” value ([1]; 100 mg/kg i.p.) was 0 ng/mL. For the same compound, the “serum PGF2α” value ([1]; 100 mg/kg p.o.) was 0 ng/mL, the ED50 ([1]; ip) was 15 mg/kg and the ED50 ([1]; po) was 10 mg/kg. It also gave a Δ light transmission ([2]; 2.5 μM, Expt. I) of 60 units, a Δ light transmission ([2]; 2.5 μM, Expt. II) of 54 units and a Δ light transmission ([2]; 5 μM, Expt. I) of 50 units. It also gave a Δ light transmission ([2]; 5 μM, Expt. II) of 44 units, a Δ light transmission ([2]; 10 μM, Expt. I) of 11 units and a Δ light transmission ([2]; 10 μM, Expt. II) of 14 units. It also gave a Δ light transmission ([2]; 20 μM, Expt. I) of 0 units, a Δ light transmission ([2]; 20 μM, Expt. II) of 0 units and a Δ light transmission ([2]; 50 μM, Expt. I) of 0 units. It also gave a Δ light transmission ([2]; 50 μM, Expt. II) of 0 units, an inhibition at 2.5 µM ([2]; 2.5 μM, Expt. I) of 0% and an inhibition at 2.5 µM ([2]; 2.5 μM, Expt. II) of 1.8%. For the same compound, the inhibition at 5 µM ([2]; 5 μM, Expt. I) was 16.7%, the inhibition at 5 µM ([2]; 5 μM, Expt. II) was 20% and the inhibition at 10 µM ([2]; 10 μM, Expt. I) was 18.6%. The inhibition at 10 µM ([2]; 10 μM, Expt. II) was 74.5%, the inhibition at 20 µM ([2]; 20 μM, Expt. I) was 100% and the inhibition at 20 µM ([2]; 20 μM, Expt. II) was 100%. For the same compound, the inhibition at 50 µM ([2]; 50 μM, Expt. I) was 100%, the inhibition at 50 µM ([2]; 50 μM, Expt. II) was 100% and the IC50 [2, 7] was 7 µM. The Δ light transmission ([3]; 10 μM, Expt. I) was 45 units, the Δ light transmission ([3]; 10 μM, Expt. II) was 47 units and the Δ light transmission ([3]; 20 μM, Expt. I) was 30 units. The Δ light transmission ([3]; 20 μM, Expt. II) was 34 units, the Δ light transmission ([3]; 25 μM, Expt. I) was 25 units and the Δ light transmission ([3]; 25 μM, Expt. II) was 30 units. For the same compound, the Δ light transmission ([3]; 50 μM, Expt. I) was 18 units, the Δ light transmission ([3]; 50 μM, Expt. II) was 14 units and the Δ light transmission ([3]; 100 μM, Expt. I) was 11 units. The Δ light transmission ([3]; 100 μM, Expt. II) was 9 units, the inhibition at 10 µM ([3]; 10 μM, Expt. I) was 0% and the inhibition at 10 µM ([3]; 10 μM, Expt. II) was 6%. The inhibition at 20 µM ([3]; 20 μM, Expt. I) was 33.3%, the inhibition at 20 µM ([3]; 20 μM, Expt. II) was 32% and the inhibition at 25 µM ([3]; 25 μM, Expt. I) was 44.4%. It also gave an inhibition at 25 µM ([3]; 25 μM, Expt. II) of 40%, an inhibition at 50 µM ([3]; 50 μM, Expt. I) of 60% and an inhibition at 50 µM ([3]; 50 μM, Expt. II) of 71%. For the same compound, the inhibition at 100 µM ([3]; 100 μM, Expt. I) was 75%, the inhibition at 100 µM ([3]; 100 μM, Expt. II) was 82% and the IC50 [3, 7] was 40 µM. For the same compound, the “inhibition of human blood-platelet aggregation (in words)” value [4] was “inhibit prostaglandin formation and human blood-platelet aggregation”, the Δ light transmission ([5]; 2.5 μM, Expt. I) was 49 units and the Δ light transmission ([5]; 2.5 μM, Expt. II) was 50 units. It also gave a Δ light transmission ([5]; 5 μM, Expt. I) of 24 units, a Δ light transmission ([5]; 5 μM, Expt. II) of 20 units and a Δ light transmission ([5]; 15 μM, Expt. I) of 8 units. It also gave a Δ light transmission ([5]; 15 μM, Expt. II) of 7 units, a Δ light transmission ([5]; 25 μM, Expt. I) of 5 units and a Δ light transmission ([5]; 25 μM, Expt. II) of 5 units. For the same compound, the Δ light transmission ([5]; 50 μM, Expt. I) was 4 units, the Δ light transmission ([5]; 50 μM, Expt. II) was 3 units and the inhibition at 2.5 µM ([5]; Homo sapiens, Platelet, 2.5 μM, Expt. I) was 24.6%. For the same compound, the inhibition at 2.5 µM ([5]; Homo sapiens, Platelet, 2.5 μM, Expt. II) was 16.7%, the inhibition at 5 µM ([5]; Homo sapiens, Platelet, 5 μM, Expt. I) was 63.1% and the inhibition at 5 µM ([5]; Homo sapiens, Platelet, 5 μM, Expt. II) was 66.6%. It also gave an inhibition at 15 µM ([5]; Homo sapiens, Platelet, 15 μM, Expt. I) of 87.7%, an inhibition at 15 µM ([5]; Homo sapiens, Platelet, 15 μM, Expt. II) of 88.3% and an inhibition at 25 µM ([5]; Homo sapiens, Platelet, 25 μM, Expt. I) of 92.4%. It also gave an inhibition at 25 µM ([5]; Homo sapiens, Platelet, 25 μM, Expt. II) of 91.6%, an inhibition at 50 µM ([5]; Homo sapiens, Platelet, 50 μM, Expt. I) of 93.8% and an inhibition at 50 µM ([5]; Homo sapiens, Platelet, 50 μM, Expt. II) of 95%. For the same compound, the IC50 ([5]; Homo sapiens, Platelet, Table 7, read-out: Inhibition of collagen-induced platelet aggregation, Activity IC50) was 3.5 µM, the IC50 ([5]; incubation in human citrated platelet-rich plasma, read-out: IC50 collagen) was 3.5 µM and the “toxicity (in words)” value [6] was “low in toxicity”.
